Results from patent US7253138B2, “Corrosion and gas hydrate inhibitors having improved water solubility and increased biodegradability” (Clariant Produkte (Deutschland) GmbH, priority 2003, dated 2007).

Key:
[1] = LPR test (corrosion inhibition, test conditions similar to ASTM D 2776)
Method: The products were also tested in the LPR test (test conditions similar to ASTM D 2776).

[2] = Shell wheel test (corrosion inhibition); settings: salt water/petroleum mixture (9:1.5% NaCl solution, pH 3.5 with acetic acid), 40 rpm, 70° C., 24 hours; 50 ppm of a 40% solution of the inhibitor; from mass reduction vs blank
Method: The compounds according to the invention were tested as corrosion inhibitors in the Shell wheel test. Coupons of carbon steel (DIN 1.1203 having 15 cm^2 surface area) were immersed in a salt water/petroleum mixture (9:1.5% NaCl solution, adjusted to pH 3.5 using acetic acid) and subjected to this medium at a rotation rate of 40 rpm at 70° C. for 24 hours. The dosage of the inhibitor was 50 ppm of a 40% solution of the inhibitor. The protection values were calculated from the mass reduction of the coupons, based on a blank value.
In the table which follows, “comparison” refers to a commercial soya fatty acid amidopropyl-N,N-dimethylammonium carboxymethyl betaine described by EP-B-0 446 616 (prior art corrosion inhibitor).

Agitation foam method = type: physicochemical; settings: 50 ml of a 3% aqueous solution in demineralized water, agitated 20 times within 10 sec in closed 100 ml cylinder
Method: The foam properties were tested with the agitation foam method. To this end, 50 ml of a 3% aqueous solution of the appropriate corrosion inhibitor in demineralized water were agitated in a closed 100 ml measuring cylinder 20 times within 10 sec. On completion of the agitation, the foaming behavior was assessed using the total volume of the solution (foam height) and the foam decomposition time (time until attainment of the starting volume of 50 ml).

Foaming behavior (Agitation foam method) | Substance | Protection after 10 min [1] | Protection after 30 min [1] | Protection after 60 min [1] | ø Protection % [2]
 | Dodecenyl-/tetradecenylsuccinimido-N,N-dimethylpropylammonium N-methylcarboxyl betaine [Betaine from example 7] | 72.5% | 92.0% | 98.1% | 84.9%
Weakly foaming | Pentapropylenesuccinimido-N,N-dimethylpropylammonium N-methylcarboxyl betaine [Betaine from example 9] | 77.9% | 94.0% | 99.8% | 90.4%
Weakly foaming | Polyisobutenylsuccinimido-N,N-dimethylpropylammonium N-methyl-carboxyl betaine [Betaine from example 10] | 79.1% | 92.3% | 99.2% | 90.1%
Weakly foaming | Polyisobutenylsuccinimido-N,N-dimethylpropylammonium N-methyl-carboxyl betaine [Betaine from example 11] | 61.9% | 70.6% | 80.6% | 80.6%
 | Polyisobutenylsuccinimido-N,N-dimethylpropylammonium N-methyl-carboxyl betaine [Betaine from example 12] | 70.0% | 79.4% | 86.3% | 82.7%
 | Tetrapropylenesuccinimido-N,N-dimethylpropylammonium N-methylcarboxyl betaine [Betaine from example 8] | 74.0% | 81.3% | 84.9% | 84.0%
Strongly foaming | soya fatty acid amidopropyl-N,N-dimethylammonium carboxymethyl betaine [Comparison, reference compound] | 45.9% | 59.2% | 64.2% | 75.4%
